Laboratory results: ChEMBL document CHEMBL1201862, “PubChem BioAssay data set” (2004)
Active and inactive are the calls of the source.

How the values were obtained:
[1] = biological target: Sphingosine 1-phosphate receptor 2 (Homo sapiens, UniProt O95136); assay: Dose Response Cell Based Assay for Antagonists of the S1P2 Receptor. [Related pubchem assays: 856, 736 ]; type: functional
[2] = cytotoxicity in HEK-293T cells, dose response, cytotoxicity control for BCR NF-kB inhibitor project, luminescence, B-cell screen hits (AID 489021); type: functional, cell-based;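 further: HEK-293T cells carrying an NF-kB luciferase reporter; cells exposed to compound for about 14 hours before viability readout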
[3] = Luminescence Cell-Based Dose Confirmation HTS to Identify Inhibitors of Polyadenylation.; type: functional
Estrogen receptor = biological target: T1, Estrogen receptor (Homo sapiens, UniProt P03372);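 further: potency for inhibiting coactivator peptide recruitment to the receptor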
T1 sequence (P03372 whole entry): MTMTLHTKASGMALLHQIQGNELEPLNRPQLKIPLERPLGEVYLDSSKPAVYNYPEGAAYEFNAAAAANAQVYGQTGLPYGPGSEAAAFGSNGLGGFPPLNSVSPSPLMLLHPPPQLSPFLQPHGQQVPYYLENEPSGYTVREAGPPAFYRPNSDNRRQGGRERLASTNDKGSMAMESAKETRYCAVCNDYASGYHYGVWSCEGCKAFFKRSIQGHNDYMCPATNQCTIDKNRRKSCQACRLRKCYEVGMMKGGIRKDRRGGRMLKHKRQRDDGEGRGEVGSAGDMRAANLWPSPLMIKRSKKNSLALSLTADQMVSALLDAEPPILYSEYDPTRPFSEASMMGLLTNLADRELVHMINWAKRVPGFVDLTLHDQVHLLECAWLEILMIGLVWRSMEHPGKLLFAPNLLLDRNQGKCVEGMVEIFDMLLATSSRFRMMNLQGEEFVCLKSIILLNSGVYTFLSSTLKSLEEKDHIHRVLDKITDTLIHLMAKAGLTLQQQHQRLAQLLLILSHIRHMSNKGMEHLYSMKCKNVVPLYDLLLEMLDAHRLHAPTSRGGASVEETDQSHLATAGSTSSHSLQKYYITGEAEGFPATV

Escherichia coli = assay: microbe, parasite or virus in culture
[4] = inhibitors of Vif binding to APOBEC3G peptide, primary screen, biochemical, TR-FRET, GST-Vif 1-94, biotin-A3G peptide, dose response retest (AID 1117319); type: functional;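 further: TR-FRET signal of purified GST-Vif binding a biotinylated A3G peptide; inhibitors lower the FRET signal by blocking Vif and A3G binding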
[5] = biological target: T2, Histone-lysine N-methyltransferase NSD2 (Homo sapiens, UniProt O96028); type: biochemical
T2 sequence (O96028 whole entry): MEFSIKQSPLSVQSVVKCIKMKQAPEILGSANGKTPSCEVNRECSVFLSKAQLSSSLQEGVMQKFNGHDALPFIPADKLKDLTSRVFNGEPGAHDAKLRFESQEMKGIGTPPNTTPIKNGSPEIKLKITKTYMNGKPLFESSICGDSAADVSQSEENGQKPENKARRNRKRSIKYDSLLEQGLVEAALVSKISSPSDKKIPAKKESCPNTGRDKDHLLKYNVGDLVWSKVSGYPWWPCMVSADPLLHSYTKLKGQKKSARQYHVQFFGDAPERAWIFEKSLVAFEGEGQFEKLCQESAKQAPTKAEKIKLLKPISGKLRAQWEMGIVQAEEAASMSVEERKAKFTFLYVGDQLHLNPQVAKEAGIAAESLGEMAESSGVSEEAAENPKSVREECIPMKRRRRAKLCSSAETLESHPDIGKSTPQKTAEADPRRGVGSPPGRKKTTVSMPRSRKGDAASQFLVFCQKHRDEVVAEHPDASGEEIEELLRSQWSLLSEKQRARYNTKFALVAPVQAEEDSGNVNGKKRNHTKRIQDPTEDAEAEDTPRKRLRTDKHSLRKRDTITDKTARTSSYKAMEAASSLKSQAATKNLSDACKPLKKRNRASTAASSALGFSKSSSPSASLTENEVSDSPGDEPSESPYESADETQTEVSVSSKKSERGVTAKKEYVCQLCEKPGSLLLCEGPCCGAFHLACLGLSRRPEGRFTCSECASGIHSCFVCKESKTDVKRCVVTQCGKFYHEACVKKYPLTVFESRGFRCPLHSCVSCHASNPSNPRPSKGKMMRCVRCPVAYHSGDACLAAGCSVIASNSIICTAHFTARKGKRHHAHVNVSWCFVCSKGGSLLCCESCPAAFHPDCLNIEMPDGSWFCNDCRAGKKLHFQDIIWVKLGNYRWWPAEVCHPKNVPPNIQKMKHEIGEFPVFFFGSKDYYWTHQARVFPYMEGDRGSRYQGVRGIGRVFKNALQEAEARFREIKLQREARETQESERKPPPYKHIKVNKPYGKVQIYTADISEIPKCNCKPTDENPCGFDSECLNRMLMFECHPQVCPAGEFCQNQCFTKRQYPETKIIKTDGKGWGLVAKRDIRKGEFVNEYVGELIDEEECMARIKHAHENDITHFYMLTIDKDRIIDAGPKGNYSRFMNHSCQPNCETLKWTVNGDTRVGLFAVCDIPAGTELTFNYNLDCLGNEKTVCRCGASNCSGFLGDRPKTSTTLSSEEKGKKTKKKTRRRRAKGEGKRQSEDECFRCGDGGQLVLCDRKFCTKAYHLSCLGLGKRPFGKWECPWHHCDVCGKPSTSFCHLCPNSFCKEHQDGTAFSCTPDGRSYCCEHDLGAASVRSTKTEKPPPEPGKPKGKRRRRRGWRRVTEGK

[6] = inhibitors of intracellular T. cruzi replication, confirmation, NIH3T3 host cells, beta-gal luminescence (AID 2044); type: functional, cell-based;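 further: intracellular parasites grown in NIH/3T3 mouse fibroblasts as host cells; luminescent beta-galactosidase reporter signal from transgenic T. cruzi replicating inside host cells; inhibitors lower the luminescence signal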
[7] = cytotoxicity toward NIH3T3 fibroblasts, dose response, counter-screen, cell-based, ATP luminescence, mouse fibroblasts (AID 2010); type: functional;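 further: cells exposed to compound for about 90 hours before reading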
Beta-galactosidase = Beta-galactosidase (Escherichia coli, UniProt Q8VNN2); assay: beta-galactosidase enzyme inhibitors and activators, dose response, artefact control for CCR6 antagonist project, biochemical, E. coli enzyme, set 3 (AID 504712); type: functional
Sequence of Beta-galactosidase (Q8VNN2 whole entry): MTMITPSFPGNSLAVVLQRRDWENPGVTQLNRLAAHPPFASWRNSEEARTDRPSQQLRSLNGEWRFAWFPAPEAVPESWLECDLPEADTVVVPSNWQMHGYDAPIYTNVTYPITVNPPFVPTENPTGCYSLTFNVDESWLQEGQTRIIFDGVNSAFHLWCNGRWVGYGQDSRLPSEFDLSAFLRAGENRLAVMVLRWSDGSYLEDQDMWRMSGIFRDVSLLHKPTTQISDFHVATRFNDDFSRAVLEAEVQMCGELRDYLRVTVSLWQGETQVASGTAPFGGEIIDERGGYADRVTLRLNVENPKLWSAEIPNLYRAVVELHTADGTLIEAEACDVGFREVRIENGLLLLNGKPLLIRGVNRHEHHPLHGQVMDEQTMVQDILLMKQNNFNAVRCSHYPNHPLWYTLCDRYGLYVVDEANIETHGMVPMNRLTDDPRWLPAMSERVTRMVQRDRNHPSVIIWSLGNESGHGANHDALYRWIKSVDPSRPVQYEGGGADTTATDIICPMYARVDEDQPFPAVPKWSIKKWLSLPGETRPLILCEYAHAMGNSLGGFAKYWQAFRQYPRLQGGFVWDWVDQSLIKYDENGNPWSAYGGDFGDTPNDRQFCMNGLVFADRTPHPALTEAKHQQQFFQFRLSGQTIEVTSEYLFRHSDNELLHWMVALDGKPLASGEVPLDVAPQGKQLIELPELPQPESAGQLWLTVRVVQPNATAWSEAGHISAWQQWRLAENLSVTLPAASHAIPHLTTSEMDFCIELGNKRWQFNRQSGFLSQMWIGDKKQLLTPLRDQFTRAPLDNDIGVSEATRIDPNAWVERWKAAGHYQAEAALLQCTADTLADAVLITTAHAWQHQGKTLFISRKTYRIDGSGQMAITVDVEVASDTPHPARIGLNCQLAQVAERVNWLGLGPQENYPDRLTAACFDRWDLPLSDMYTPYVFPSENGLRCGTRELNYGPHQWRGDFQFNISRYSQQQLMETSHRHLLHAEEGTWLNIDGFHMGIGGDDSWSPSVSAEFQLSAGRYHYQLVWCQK

[8] = biological target: Mitogen-activated protein kinase 10 (Homo sapiens, UniProt P53779); assay: Dose response biochemical screening assay for inhibitors of c-Jun N-Terminal Kinase 3 (JNK3). [Related pubchem assays: 746 ]
Sequence of Mitogen-activated protein kinase 10 (P53779 whole entry): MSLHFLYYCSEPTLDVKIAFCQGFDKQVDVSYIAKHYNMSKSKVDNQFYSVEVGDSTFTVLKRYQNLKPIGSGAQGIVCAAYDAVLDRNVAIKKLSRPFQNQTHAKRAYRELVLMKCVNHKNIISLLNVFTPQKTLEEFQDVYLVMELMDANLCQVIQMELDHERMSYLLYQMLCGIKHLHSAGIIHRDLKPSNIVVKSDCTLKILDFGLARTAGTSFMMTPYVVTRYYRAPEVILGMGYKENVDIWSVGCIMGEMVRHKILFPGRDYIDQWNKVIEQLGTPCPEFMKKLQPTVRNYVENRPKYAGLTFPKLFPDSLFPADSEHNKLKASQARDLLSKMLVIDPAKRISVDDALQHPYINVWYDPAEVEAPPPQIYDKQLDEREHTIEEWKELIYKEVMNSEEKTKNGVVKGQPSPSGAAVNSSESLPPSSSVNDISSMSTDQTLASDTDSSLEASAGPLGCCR

[9] = inhibitors of firefly luciferase expression or activity, dose response, H4 neuroglioma cells, luminescence (AID 1990); type: functional, cell-based
[10] = Luminescence Cell-Based Dose Response HTS to Identify Inhibitors of 5'UTR Stem-Loop Driven Prion Protein mRNA Translation in H4 Neuroglioblastoma Cells. [Related pubchem assays: 1827 (Project Summary), 1813 (Primary HTS)]; type: functional
[11] = inhibitors of SNCA 5'UTR-driven reporter translation, confirmation, H4 neuroglioma cells, luminescence (AID 1988); type: functional, cell-based
[12] = biological target: T3, Corticotropin-releasing factor receptor 2/Corticotropin-releasing factor-binding protein (Homo sapiens, UniProt P24387+Q13324); assay: activators of CRF receptor 2 with binding protein – uHTS hits, confirmation (AID 602473); type: functional; conditions: read-out: EC50_Mean
T3 sequence (Q13324 whole entry): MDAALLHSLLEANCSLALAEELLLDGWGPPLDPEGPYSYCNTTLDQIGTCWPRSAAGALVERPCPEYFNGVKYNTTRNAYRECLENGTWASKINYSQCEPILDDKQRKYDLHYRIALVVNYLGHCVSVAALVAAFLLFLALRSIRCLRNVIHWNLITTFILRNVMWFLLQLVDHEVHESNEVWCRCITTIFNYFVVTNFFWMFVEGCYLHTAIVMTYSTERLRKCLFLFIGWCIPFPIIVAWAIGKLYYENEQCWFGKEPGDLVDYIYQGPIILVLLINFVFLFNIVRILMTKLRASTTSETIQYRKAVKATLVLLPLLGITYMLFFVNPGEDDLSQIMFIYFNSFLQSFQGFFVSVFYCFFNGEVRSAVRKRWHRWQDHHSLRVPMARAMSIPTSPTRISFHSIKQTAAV
T3 sequence (P24387 whole entry): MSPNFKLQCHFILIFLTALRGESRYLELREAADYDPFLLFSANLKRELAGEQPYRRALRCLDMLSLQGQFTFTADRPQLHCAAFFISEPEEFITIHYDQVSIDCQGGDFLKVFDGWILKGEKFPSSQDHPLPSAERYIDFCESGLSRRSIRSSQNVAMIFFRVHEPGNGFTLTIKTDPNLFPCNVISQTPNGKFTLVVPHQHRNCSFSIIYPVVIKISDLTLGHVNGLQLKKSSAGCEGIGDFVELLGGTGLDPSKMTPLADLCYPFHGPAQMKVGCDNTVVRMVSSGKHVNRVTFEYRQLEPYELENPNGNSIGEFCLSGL

[13] = A549 cell cytotoxicity, dose response, cytotoxicity control, plate reader, cherry-pick, antagonist series (AID 743412); type: functional, cell-based
Cryptococcus neoformans = assay: PubChem AID 686997; type: functional, organism-based; conditions: Cryptococcus neoformans
HEK293 = assay: HEK293T cell cytotoxicity, dose response, cytotoxicity control, ATP luminescence, cherry-pick samples (AID 687005); type: functional, cell-based; conditions: Homo sapiens;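 further: cells exposed to compound for 48 hours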
[14] = HEK293 Cytotoxicity Assay Measured in Cell-Based System Using Plate Reader - 7071-01_Inhibitor_Dose_CherryPick_Activity_Set2.; type: functional
HeLa = assay: HeLa cell cytotoxicity, dose response, cytotoxicity control, ATP luminescence, cherry-pick samples (AID 687004); type: functional, cell-based; conditions: Homo sapiens
[15] = biological target: Voltage-gated N-type calcium channel alpha-1B subunit/Amyloid beta A4 precursor protein-binding family A member 1 (Homo sapiens, UniProt Q00975+Q02410); type: protein assay
[16] = biological target: Disintegrin and metalloproteinase domain-containing protein 17 (Homo sapiens, UniProt P78536); assay: exosite inhibitors of ADAM17, dose response, biochemical (AID 743260)
Sequence of Disintegrin and metalloproteinase domain-containing protein 17 (P78536 whole entry, the tested form may be a part): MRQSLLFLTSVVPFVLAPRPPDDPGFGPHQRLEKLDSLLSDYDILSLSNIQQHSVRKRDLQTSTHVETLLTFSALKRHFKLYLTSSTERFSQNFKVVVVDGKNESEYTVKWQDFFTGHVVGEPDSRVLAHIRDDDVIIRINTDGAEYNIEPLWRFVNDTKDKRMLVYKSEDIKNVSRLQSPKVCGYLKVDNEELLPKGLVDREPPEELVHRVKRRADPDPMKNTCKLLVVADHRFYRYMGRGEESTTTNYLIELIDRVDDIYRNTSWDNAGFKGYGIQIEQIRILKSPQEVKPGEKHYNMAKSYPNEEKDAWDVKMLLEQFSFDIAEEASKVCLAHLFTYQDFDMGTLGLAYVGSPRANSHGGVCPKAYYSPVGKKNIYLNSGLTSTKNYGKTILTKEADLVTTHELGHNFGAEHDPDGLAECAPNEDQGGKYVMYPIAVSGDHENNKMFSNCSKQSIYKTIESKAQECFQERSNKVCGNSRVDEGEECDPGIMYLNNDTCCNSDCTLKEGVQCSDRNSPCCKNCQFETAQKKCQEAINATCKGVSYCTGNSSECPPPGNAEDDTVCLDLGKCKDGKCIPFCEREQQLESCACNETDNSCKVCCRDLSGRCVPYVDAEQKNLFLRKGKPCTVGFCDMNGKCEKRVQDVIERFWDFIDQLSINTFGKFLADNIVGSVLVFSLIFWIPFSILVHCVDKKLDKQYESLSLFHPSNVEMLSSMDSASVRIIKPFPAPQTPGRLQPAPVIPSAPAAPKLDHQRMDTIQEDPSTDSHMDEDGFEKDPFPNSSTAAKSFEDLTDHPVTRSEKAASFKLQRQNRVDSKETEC

[17] = ADAM10 protease inhibitors, dose response, selectivity assay for ADAM17 exosite inhibitor project, biochemical, FRET peptide substrate, recombinant human ADAM10 (AID 743259);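 further: ADAM10 enzyme cleaving a FRET peptide substrate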
Estrogen receptor beta = Estrogen receptor beta (Homo sapiens, UniProt Q92731); assay: ERβ–SRC-3 coactivator interaction inhibitors, confirmation, orthogonal assay, biochemical, ELISA, streptavidin-HRP readout (AID 1060)
Sequence of Estrogen receptor beta (Q92731 whole entry): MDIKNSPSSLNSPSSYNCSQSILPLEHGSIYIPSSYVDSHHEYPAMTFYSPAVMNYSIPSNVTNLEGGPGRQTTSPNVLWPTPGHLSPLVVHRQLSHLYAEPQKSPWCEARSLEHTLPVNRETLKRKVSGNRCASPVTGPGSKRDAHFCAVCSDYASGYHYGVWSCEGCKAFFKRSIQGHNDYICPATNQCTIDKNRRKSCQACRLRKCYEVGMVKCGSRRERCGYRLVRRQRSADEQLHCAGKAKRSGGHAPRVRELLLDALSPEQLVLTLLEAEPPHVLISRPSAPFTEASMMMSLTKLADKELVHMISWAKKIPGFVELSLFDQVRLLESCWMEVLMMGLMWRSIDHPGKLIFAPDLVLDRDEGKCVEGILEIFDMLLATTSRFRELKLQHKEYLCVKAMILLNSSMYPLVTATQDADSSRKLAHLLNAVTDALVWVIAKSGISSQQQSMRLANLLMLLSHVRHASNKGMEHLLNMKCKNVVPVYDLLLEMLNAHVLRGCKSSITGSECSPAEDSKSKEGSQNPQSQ

[18] = biological target: T4, Dual specificity protein phosphatase 6 (Rattus norvegicus, UniProt Q64346); assay: MKP-3 phosphatase inhibitors, primary screen, biochemical, rat enzyme, in vitro (AID 425)
T4 sequence (Q64346 whole entry): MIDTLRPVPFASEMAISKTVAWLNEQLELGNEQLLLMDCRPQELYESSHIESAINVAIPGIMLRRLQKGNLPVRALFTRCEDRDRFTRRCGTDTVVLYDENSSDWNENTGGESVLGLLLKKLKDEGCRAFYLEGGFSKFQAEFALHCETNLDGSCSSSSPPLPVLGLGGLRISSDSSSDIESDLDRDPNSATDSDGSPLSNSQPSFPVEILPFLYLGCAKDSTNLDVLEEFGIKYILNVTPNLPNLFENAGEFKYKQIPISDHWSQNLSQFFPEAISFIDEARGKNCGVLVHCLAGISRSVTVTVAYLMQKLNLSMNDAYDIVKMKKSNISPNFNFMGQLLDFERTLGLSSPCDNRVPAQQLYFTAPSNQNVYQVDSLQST

Sequence of Sphingosine 1-phosphate receptor 2 (O95136 whole entry): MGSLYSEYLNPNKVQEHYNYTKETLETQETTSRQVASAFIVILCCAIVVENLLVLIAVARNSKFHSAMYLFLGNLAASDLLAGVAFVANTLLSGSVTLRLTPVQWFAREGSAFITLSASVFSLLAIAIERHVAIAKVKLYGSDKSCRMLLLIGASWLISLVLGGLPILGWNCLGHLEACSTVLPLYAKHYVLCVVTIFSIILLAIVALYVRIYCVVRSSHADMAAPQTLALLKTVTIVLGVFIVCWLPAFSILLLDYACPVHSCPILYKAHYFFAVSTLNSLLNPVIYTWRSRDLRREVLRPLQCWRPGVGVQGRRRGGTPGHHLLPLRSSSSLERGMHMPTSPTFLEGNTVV

Cc1ccsc1C(=O)Nc1ccc(F)cc1
IC50 [1]: > 30 µM (not active)

CCC(C)[C@H](N)c1nnc(SCC(=O)c2ccc(Cl)cc2)o1 (some centres not stated)
IC50 [2]: > 80 µM (inactive)

O=C1c2cnc3nc(SCc4ccccc4)nn3c2CC2c3ccccc3CCN12 (configuration not stated)
EC50 [3]: > 120 µM (not active)

Cc1ccc(NC(=O)/C(=C/c2cccc([N+](=O)[O-])c2)NC(=O)C2CCCCC2)c(C)c1
IC50 (Estrogen receptor): > 50 µM (not active)
EC50 [3]: > 120 µM (not active)
AC50 (Escherichia coli): 62.4 µM (active)

FC(F)(F)c1cnc2c(-c3cccs3)csc2c1
IC50 [1]: > 30 µM (not active)

Cc1ccc(S(=O)(=O)CCC(=O)Nc2ccc3c(c2)OCO3)cc1
IC50 [4]: > 100 µM (active)

CCN(CC)c1ccc(C2C3CCCCC3(O)CCN2CC(=O)Nc2ccccc2)cc1 (configuration not stated)
IC50 [4]: > 100 µM (active)

O=C(Nc1cccc(Oc2ccc3c(c2)C(=O)NC3=O)c1)c1cccs1
IC50 [2]: > 80 µM (inactive)

CCN1CCCC1CNc1[nH]cnc2c3cc(F)ccc3nc1-2 (configuration not stated)
AC50 [5]: > 20 µM (inactive)

O=C1c2cccc3c([N+](=O)[O-])ccc(c23)C(=O)N1Cc1cccnc1
EC50 [6]: 3.67 µM (active)
EC50 [7]: 9.5 µM (active)
IC50 (Beta-galactosidase): 16.8 µM (active)

CCCc1nc(SCC(=O)N2CCCC2)c2ccccc2n1
IC50 [8]: 50.4 µM (not active)

COc1ccccc1NC(=O)COc1ccc(CO)cc1Cl
IC50 [8]: 68.6 µM (not active)

O=C(Oc1coc(CSc2ncccn2)cc1=O)c1ccc(Br)o1
EC50 [3]: > 120 µM (not active)

Cc1cc(C)cc(NC(=O)c2nnn(Cc3cc(C)ccc3C)c2N)c1
EC50 [9]: 13.6 µM (active)
EC50 [10]: 39.8 µM (active)
EC50 [11]: 18.2 µM (active)
IC50 [2]: > 80 µM (inactive)
EC50 [12]: 8.37 µM (active)

O=C(Nc1ccc(F)cc1)c1cc(-c2cccs2)nc2ccccc12
IC50 [1]: > 30 µM (not active)

COC(=O)C1=C(C(=O)OC)C(C(=O)OC)C(C(=O)OC)C(C(=O)OC)(C(=O)OC)C(C(=O)OC)=C1C(=O)OC (configuration not stated)
IC50 (Beta-galactosidase): > 66.6 µM (inactive)

C[C@H](CO)N1C[C@H](C)[C@@H](CN(C)C(=O)Nc2ccc3c(c2)OCO3)Oc2c(cccc2N(C)C)C1=O
AC50 [13]: > 52 µM (inactive)

COC(=O)C1=C(C)N(Cc2ccccc2)C(=S)NC1c1cccc(Br)c1 (configuration not stated)
AC50 (Cryptococcus neoformans): 36.5 µM (active)
AC50 (HEK293): 33.6 µM (active)
AC50 [14]: 33.6 µM (active)

O=C(Nc1ccccc1)N1CCCCN2[C@H](CO)[C@@H](c3ccc(C#CC4CC4)cc3)[C@@H]2C1
AC50 (HeLa): > 52 µM (inactive)
AC50 (HEK293): 14.4 µM (active)
AC50 [14]: 14.4 µM (active)

O=C(N/N=C/c1ccc([N+](=O)[O-])cc1)c1cc(-c2ccc3c(c2)OCO3)[nH]n1
IC50 [15]: 7.27 µM (active)

CC1CN(S(=O)(=O)c2ccc(NC(=O)c3cc(-c4ccccc4O)n[nH]3)cc2)CC(C)O1 (configuration not stated)
IC50 [16]: > 69.5 µM (inactive)
IC50 [17]: > 69.5 µM (inactive)

O=C(O)C(O)c1ccco1 (configuration not stated)
IC50 (Estrogen receptor): > 50 µM (not active)
IC50 (Estrogen receptor beta): 3.23 µM (not active)
IC50 [18]: 3.73 µM (active)
